These results are taken from article PMC7434922, “Key role of quinone in the mechanism of respiratory complex I” (Nature Communications, 2020).

The IC50 is the point on the concentration scale where inhibition reaches its midpoint.

The chains are these.
T1: Complex I subunit Nqo4 (Thermus thermophilus) (T. thermophilus HB8, UniProt Q56220 1-409)
T1 construct: Nqo4, core subunit of the peripheral arm of respiratory complex I, Thermus thermophilus HB8; Endogenous subunit inside the crystallised intact complex; source: purified from T. thermophilus HB8 cells as part of intact complex I (anion exchange, cation exchange, gel filtration)
T1 sequence (looked up): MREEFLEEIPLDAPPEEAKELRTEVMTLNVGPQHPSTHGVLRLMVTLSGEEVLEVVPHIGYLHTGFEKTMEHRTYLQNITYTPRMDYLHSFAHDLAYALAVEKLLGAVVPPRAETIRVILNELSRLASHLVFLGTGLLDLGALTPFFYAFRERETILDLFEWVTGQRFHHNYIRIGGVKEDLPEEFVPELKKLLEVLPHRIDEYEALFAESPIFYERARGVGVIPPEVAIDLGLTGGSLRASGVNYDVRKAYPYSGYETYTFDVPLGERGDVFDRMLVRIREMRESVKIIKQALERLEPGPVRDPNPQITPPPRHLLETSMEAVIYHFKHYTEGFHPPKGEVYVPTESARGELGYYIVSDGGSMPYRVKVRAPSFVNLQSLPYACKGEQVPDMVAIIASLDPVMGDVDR

B1: Heterologously expressed subunit Nqo16 (ttha1528 gene), His-tagged (natural protein, T. thermophilus HB8, UniProt Q5SI52 1-131, looked up)
chain: MVRVGMRAAPRVSLEALKAALGGLKLSEAKVYLITDWQDKRDQARYALLLHTGKKDLLVPDAFGPAFPGGEEALSELVGLLLAQGARRFYEAVVSPGEMTALLDLPPEELLKRVMAIANPTDPGIYLKRAA
notes: reverse primer with the stop codon) and cloned into pet16b; Full length is read from the printed primers (start codon in the NdeI site to the stop codon); also called His-tagged Nqo16; source: E. coli BL21(DE3), purified (heat treatment 70 °C, Ni-NTA)
B2: Complex I subunit Nqo6 (Thermus thermophilus) (natural protein, T. thermophilus HB8, UniProt Q56218 1-181, looked up)
chain: MALKDLFERDVQELEREGILFTTLEKLVAWGRSNSLWPATFGLACCAIEMMASTDARNDLARFGSEVFRASPRQADVMIVAGRLSKKMAPVMRRVWEQMPDPKWVISMGACASSGGMFNNYAIVQNVDSVVPVDVYVPGCPPRPEALIYAVMQLQKKVRGQAYNERGERLPPVAAWKRTRG
notes: Nqo6, core subunit of the peripheral arm of respiratory complex I, Thermus thermophilus HB8; Endogenous subunit inside the crystallised intact complex; source: purified from T. thermophilus HB8 cells as part of intact complex I (anion exchange, cation exchange, gel filtration)
B3: Complex I subunit Nqo8 (Thermus thermophilus) (natural protein, T. thermophilus HB8, UniProt Q60019 1-365, looked up)
chain: MTWSYPVDPYWMVALKALLVVVGLLTAFAFMTLIERRLLARFQVRMGPNRVGPFGLLQPLADAIKSIFKEDIVVAQADRFLFVLAPLISVVFALLAFGLIPFGPPGSFFGYQPWVINLDLGILYLFAVSELAVYGIFLSGWASGSKYSLLGSLRSSASLISYELGLGLALLAPVLLVGSLNLNDIVNWQKEHGWLFLYAFPAFLVYLIASMAEAARTPFDLPEAEQELVGGYHTEYSSIKWALFQMAEYIHFITASALIPTLFLGGWTMPVLEVPYLWMFLKIAFFLFFFIWIRATWFRLRYDQLLRFGWGFLFPLALLWFLVTALVVALDLPRTYLLYLSALSFLVLLGAVLYTPKPARKGGGA
notes: Nqo8, core subunit of the membrane domain of respiratory complex I, Thermus thermophilus HB8; Endogenous subunit inside the crystallised intact complex; source: purified from T. thermophilus HB8 cells as part of intact complex I (anion exchange, cation exchange, gel filtration)
B4: Complex I subunit Nqo10 (Thermus thermophilus) (natural protein, T. thermophilus HB8, UniProt Q56225 1-176, looked up)
chain: MSLLEGLALFLLLLSGVLVVTLRNAIHAALALILNFLVLAGVYVALDARFLGFIQVIVYAGAIVVLFLFVIMLLFAAQGEIGFDPLVRSRPLAALLALGVAGILAAGLWGLDLAFTQDLKGGLPQALGPLLYGDWLFVLLAVGFLLMAATVVAVALVEPGKASRAKEAEKREEVAR
notes: Nqo10, core subunit of the membrane domain of respiratory complex I, Thermus thermophilus HB8; Endogenous subunit inside the crystallised intact complex; source: purified from T. thermophilus HB8 cells as part of intact complex I (anion exchange, cation exchange, gel filtration)

Experiment [1] has as its target T2, T. thermophilus complex I (quinone site, Q-site) (Thermus thermophilus, UniProt Q56218+Q56220+Q60019).
T2 construct: gene nqo4; native intact complex purified from T. thermophilus HB8 membranes in TDM; 16 subunits, 550 kDa; for crystals recombinant His-tagged Nqo16 (E. coli) was added; activity preparation has sub-stoichiometric Nqo16; with NADH-quinone oxidoreductase subunit 1; NADH-quinone oxidoreductase subunit 2; NADH-quinone oxidoreductase subunit 3; NADH-quinone oxidoreductase subunit 5; NADH-quinone oxidoreductase subunit 7; NADH-quinone oxidoreductase subunit 9; NADH-quinone oxidoreductase subunit 10; NADH-quinone oxidoreductase subunit 11; NADH-quinone oxidoreductase subunit 12; NADH-quinone oxidoreductase subunit 13; NADH-quinone oxidoreductase subunit 14; NADH-quinone oxidoreductase subunit 15; NADH-quinone oxidoreductase subunit 16
Briefly: NADH:DQ oxidoreductase activity, absorbance at […] nm. In kind it is biochemical.

For experiment [2], the target named is T2, T. thermophilus complex I (quinone site, Q-site). Briefly: biochemical. The arrangement: NADH:decylubiquinone oxidoreductase activity of purified complex I, NADH absorbance at 340 nm, 50 °C. On the procedure:
Complex I activity was measured at 50 °C with DQ as an electron acceptor. To a 2 mL quartz cuvette containing DQ assay buffer (50 mM Bis–Tris pH 6.0, 25 mM NaCl, 2 mM CaCl2), 0.25 mg mL^−1 asolectin (Fluka), 8 μg mL^−1 complex I protein, and 100 μM DQ were added. The sample was incubated for 5 min whilst stirred at 400 rpm, to allow for the equilibration of the protein/DQ/lipid/detergent mixture. The reaction was started by adding 100 μM NADH and the change in absorbance was followed at 340 nm, over 30 s under constant stirring. Specific enzyme activity was calculated in μmol NADH oxidized mg^−[…]. When required, inhibitors of complex I were added after DQ, prior to the 5-min incubation period. Lipids were prepared by mixing asolectin in a small volume of chloroform (1 mL) before evaporating the solvent under a stream of nitrogen gas, and were resuspended in 1% CHAPS to a final concentration of 5 mg mL^−1 before use. […] IC50’s for a range of common complex I inhibitors are listed in the Supplementary Table 3. […] Crystal structures of complex I with bound DQ and Q-like inhibitors also show a rotation of PA, like that observed in MJ–MN transition. However, its degree of torsion depends strongly on the Q-ligand, with DQ introducing the largest conformational change (Supplementary Fig. 7d, e). All Q-like ligands studied here display a similar pattern of interactions at the deepest end of the Q-cavity, with the headgroup about 12 Å away from cluster N2 (Fig. 4). A shared feature between all ligands bound in the Q-site is a hydrogen bond interaction of a ketone group from the quinone ring with the conserved and essential for complex I activity Y87_4[16],[36]. Other key residues, such as H38_4 from the key β1–β2 loop (33-QHPSTHG-39) in Nqo4 and M51_6, also contribute to the stabilization of the quinone ring, while secondary residues are involved specifically in the binding of each ligand (Fig. 4 and Supplementary Fig. 2). […] In the case of [compound left out], H38_4 stabilizes its outer ether group, while M51_6 interacts with the oxygen in the furanose ring (Fig. 4c). The distal nitrobenzene moiety is surrounded by both charged and nonpolar residues that, despite the lack of direct interaction, might form a suitable pocket for its accommodation.

For experiment [3], the target named is T3, Intact complex I (NADH:ubiquinone oxidoreductase) purified from Thermus thermophilus, the form without Nqo16 (T. thermophilus HB8, UniProt Q56222 1-438; Q56221 1-181; Q56223 1-783; Q56220 1-409; Q56219 1-207; Q56218 …).
T3 construct: Nqo1, complex I subunit, Thermus thermophilus HB8; Nqo2, complex I subunit, Thermus thermophilus HB8; Nqo3, complex I subunit, Thermus thermophilus HB8; Nqo4, complex I subunit, Thermus thermophilus HB8; Nqo5, complex I subunit, Thermus thermophilus HB8; Nqo6, complex I subunit, Thermus thermophilus HB8; Nqo7, complex I subunit, Thermus thermophilus HB8; Nqo8, complex I subunit, Thermus …
As to the kind of experiment: crystal structure; intact complex I purified from T. thermophilus mixed with purified recombinant Nqo16 (1:0.2 CXI:Nqo16), sitting drop at 23 °C, 100 mM Bis-Tris pH 6.0, 19-25% PEG 4000, 100 mM KCl, 100 mM glutaric acid, detergents; native crystals and crystals soaked or co-crystallised with NADH, decylubiquinone, piericidin A, aureothin or pyridaben. The conditions noted are these: both partners purified.

The target in experiment [4] is B3. The description is as above. The note with it: both partners purified.
Experiment [5] has as its target T1, Complex I subunit Nqo4 (Thermus …). The experiment is described as above. The note with it: both partners purified.

T2 sequence (Q56222 whole entry partner, one chain of several): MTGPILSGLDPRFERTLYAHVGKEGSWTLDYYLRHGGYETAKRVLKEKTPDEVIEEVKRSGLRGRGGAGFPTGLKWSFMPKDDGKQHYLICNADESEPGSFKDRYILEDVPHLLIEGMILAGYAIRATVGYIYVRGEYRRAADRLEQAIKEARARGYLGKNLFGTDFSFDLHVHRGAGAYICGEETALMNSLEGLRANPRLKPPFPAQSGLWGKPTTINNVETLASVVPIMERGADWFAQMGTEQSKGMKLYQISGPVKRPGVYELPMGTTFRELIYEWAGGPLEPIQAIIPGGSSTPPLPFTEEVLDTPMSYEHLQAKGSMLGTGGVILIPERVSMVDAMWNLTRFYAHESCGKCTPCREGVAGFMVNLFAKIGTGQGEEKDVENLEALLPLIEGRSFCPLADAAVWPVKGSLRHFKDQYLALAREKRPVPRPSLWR

In the case of `COc1oc([C@H]2C/C(=C/C(C)=C/c3ccc([N+](=O)[O-])cc3)CO2)c(C)c(=O)c1C` [AUT, aureothin], in experiment [1] (read-out: IC50), the half-inhibitory concentration (IC50) stood at 10.3 nM.
`COc1cc(CNC(=O)CCCC/C=C/C(C)C)ccc1O` [Capsaicin]: in experiment [2] (read-out: IC50 (µM in cell)), the half-maximal inhibitory concentration (IC50) is 197 µM.
For `Cc1nn(C)c(Oc2ccccc2)c1/C=N/OCc1ccc(C(=O)OC(C)(C)C)cc1` [Fenpyroximate], the IC50 in experiment [2] (read-out: IC50 (nM in cell)) came to 0.63 µM.
`C/C=C(\C)[C@H](O)[C@H](C)/C=C(C)/C=C/C/C(C)=C/Cc1nc(OC)c(OC)c(O)c1C` [PIE, piericidin A] had an IC50 in experiment [1] of 31 nM.
On to `CC(C)(C)c1ccc(CSc2cnn(C(C)(C)C)c(=O)c2Cl)cc1` [PYR, pyridaben], for which the IC50 in experiment [1] (read-out: IC50) came to 15.6 nM.
Regarding `CCCCCCCCCC[C@H](O)[C@H]1CC[C@@H]([C@@H]2CC[C@H]([C@H](O)CCCCCCCCCC[C@@H](O)CC3=C[C@H](C)OC3=O)O2)O1` [Rolliniastatin-1], the half-inhibitory concentration (IC50) in experiment [2] (read-out: IC50 (nM in cell)) worked out at 0.93 µM.
Consider `C/C=C(C)/C=C/C=C/[C@H](OC)[C@@H](C)[C@@H](OC)[C@@H](C)CCc1oc2c(O)c(OC)cc(OC)c2c(=O)c1C` [Stigmatellin], for which the IC50 in experiment [2] (read-out: IC50 (µM in cell)) stood at 60 µM.
Turning to `C=C(C)[C@H]1Cc2c(ccc3c2O[C@@H]2COc4cc(OC)c(OC)cc4[C@@H]2C3=O)O1` [rotenone], the 50% inhibitory concentration (IC50) in experiment [1] (read-out: IC50) amounted to 190 nM.
B1: in experiment [3], the binding result is “binds”.
For the molecule B2, the binding result in experiment [4] is recorded as “binds”.
For the molecule B3, in experiment [5], the binding result is on record as “binds”.
Take B4: the binding result in experiment [4] is reported as “binds”.
